Assay results published in US7855230B2, “Derivatives of 3,3-diphenylpropylamines” (UCB Pharma GmbH, priority 1999, dated 2010).

How the values were obtained:
[1] = system: urinary bladder over the effect on the salivation; conditions: preclinical, Nilvebrant et al. 1997; cited from earlier work
[2] = Penetration through human skin, flow through cell; assay type: in vitro ADME; conditions: human skin 200 μm thick, 32° C., acceptor phosphate buffer pH 6.2
Procedure: Different compounds of the invention were tested for their ability to penetrate the human skin (200 μm thick) in the “Flow through cell” at 32° C. according to Tiemessen et al. (Acta Pharm. Technol. 1998; 34:99-101). Phosphate buffer (pH 6.2) was used as the acceptor medium. Samples were drawn at different time points and analysed by RP-HPLC with UV detection (220 nm). Permeation profiles were plotted and mean flux rates of different substances were calculated by linear regression analysis.

[3] = molecular target: T1, human muscarinic M3 receptor (Homo sapiens, UniProt P20309); experiment: [3H]-methylscopolamine binding to recombinant human M3 receptors; conditions: BSR-M3H cell membranes, 60 minutes at 25° C.
T1 construct: expressed in transfected cells; host or cells: BSR-M3H cells (membrane preparation)
T1 sequence (P20309 whole entry): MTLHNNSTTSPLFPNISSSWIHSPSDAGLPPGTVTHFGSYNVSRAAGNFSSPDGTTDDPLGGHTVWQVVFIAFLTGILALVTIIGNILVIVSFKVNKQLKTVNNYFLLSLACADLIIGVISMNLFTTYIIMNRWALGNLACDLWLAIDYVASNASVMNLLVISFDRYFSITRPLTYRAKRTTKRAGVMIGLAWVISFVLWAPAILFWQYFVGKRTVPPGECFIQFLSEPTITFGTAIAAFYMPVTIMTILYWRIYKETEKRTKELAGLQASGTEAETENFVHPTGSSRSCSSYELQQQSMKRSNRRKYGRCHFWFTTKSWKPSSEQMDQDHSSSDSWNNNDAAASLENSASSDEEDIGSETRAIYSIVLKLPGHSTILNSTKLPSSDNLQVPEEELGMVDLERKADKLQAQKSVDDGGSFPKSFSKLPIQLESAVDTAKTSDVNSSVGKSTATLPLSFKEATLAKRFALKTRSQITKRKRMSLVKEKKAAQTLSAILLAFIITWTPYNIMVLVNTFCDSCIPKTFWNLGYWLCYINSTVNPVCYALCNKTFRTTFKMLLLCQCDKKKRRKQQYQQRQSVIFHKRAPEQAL
Procedure: WO 94/11337 discloses that the active metabolite has high affinity to muscarinic receptors in the guinea-pig bladder. Different compounds of the present invention were tested in a well established standardized assay, measuring the binding of [^3H]-methylscopolamine to recombinant human M3 receptors. BSR-M3H cells transfected with a plasmid encoding the human muscarinic M3 receptor were used to prepare membranes in modified Tris-HCl pH 7.4 buffer using standard techniques. An aliquot of the membrane preparation was incubated with [^3H]-methylscopolamine in the presence or absence of different concentrations of several compounds of the invention for 60 minutes at 25° C. Nonspecific binding was estimated in the presence of 1 μM atropine. Membranes were filtered and washed three times and the filters were counted to determine the amount of [^3H]-methylscopolamine specifically bound.

guinea-pig ileum = experiment: Anticholinergic activity in guinea-pig ileum (methacholine-induced contractile response); assay type: cell-based; conditions: Cavia porcellus; methacholine 0.6 μM, Krebs solution pH 7.4, 32° C.
Procedure: The compounds were tested for their anticholinergic activity in a standard tissue assay, the guinea-pig ileum. A segment of ileum was obtained from Duncan Hartley guinea-pigs which were scarified by cervical dislocation. The tissue was placed under 1 g tension in a 10 ml bath containing Krebs, solution (pH 7.4, 32° C.) and the concentration-dependent ability of different compounds to reduce the methacholine-induced (0.6 μM) contractile response was recorded.

[4] = Incubation of labelled substrates: metabolic degradation to the carboxylic acid; assay type: in vitro ADME, human; conditions: 3 hrs at 37.0° C., 40 μM; compared with unlabelled hydroxy metabolite
Procedure: The metabolic degradation of the unlabelled hydroxy metabolite (i.e. Intermediate D) and the deuteriated hydroxy-metabolite (Intermediate d2B) were compared in vitro. Used were the respective enantiomers and the racemates.
The hydroxy metabolite and the deuteriated hydroxy-metabolite expressed significant differences in the rate to produce the corresponding carboxylic acid.
The measurement was performed with an incubation time of 3 hrs at 37.0° C. in a concentration of 40 μM.

| IC50 [3] [µM] | IC50 (guinea-pig ileum) [µM] | Structure (SMILES) | also measured |
| --- | --- | --- | --- |
| 2.4 | – | CC(C)N(CCC(c1ccccc1)c1cc(COC(=O)c2ccccc2)ccc1OC(=O)c1ccccc1)C(C)C (racemic) [BzO-/-OBz, (±)-Benzoic acid 4-benzoyloxymethyl-2-(3-diisopropylamino-1-phenylpropyl)-phenyl ester] | – |
| 0.159 | 0.057 | CC(C)C(=O)Oc1ccc(CO)cc1[C@H](CCN(C(C)C)C(C)C)c1ccccc1 [(+)HO-/-OiBut, R-(+)-Isobutyric acid 2-(3-diisopropylamino-1-phenylpropyl)-4-hydroxymethylphenyl ester] | – |
| – | 0.22 | CC(C)N(CC[C@H](c1ccccc1)c1cc(COC(=O)c2ccccc2)ccc1OC(=O)c1ccccc1)C(C)C [(+)BzO-/-OBz, R-(+)-benzoic acid 4-benzoyloxymethyl-2-(3-diisopropylamino-1-phenylpropyl)-phenyl ester] | – |
| 1.3 | 0.68 | CC(C)N(CC[C@@H](c1ccccc1)c1cc(CO)ccc1O)C(C)C [(−)HO-/-OH, S-(−)-2-(3-Diisopropylamino-1-phenylpropyl)-4-hydroxymethyl-phenol, reference compound] | – |
| 0.172 | 0.18 | CC(C)N(CC[C@H](c1ccccc1)c1cc(CO)ccc1OC(=O)c1ccccc1)C(C)C [(+)HO-/-OBz, R-(+)-Benzoic acid 2-(3-diisopropylamino-1-phenylpropyl)-4-hydroxymethylphenyl ester] | – |

The remaining lines, values behind:

| Structure (SMILES) | IC50 [3] [µM] | IC50 (guinea-pig ileum) [µM] | also measured |
| --- | --- | --- | --- |
| Cc1ccc(O)c([C@H](CCN(C(C)C)C(C)C)c2ccccc2)c1 [tolterodine, Tolterodine] | – | – | tissue selectivity in vivo for the urinary bladder over the effect on the salivation [1]: favourable tissue selectivity |
| CCC(=O)OCc1ccc(OC(=O)CC)c(C(CCN(C(C)C)C(C)C)c2ccccc2)c1 (racemic) [PropO-/-OProp, (±)-Propionic acid 2-(3-diisopropylamino-1-phenylpropyl)-4-propionyloxymethylphenyl ester] | – | – | Flux rate [2]: 70 μg/cm^2/24 hrs |
| CC(C)N(CC[C@H](c1ccccc1)c1cc(CO)ccc1O)C(C)C [(+)HO-/-OH, R-(+)-2-(3-Diisopropylamino-1-phenylpropyl)-4-hydroxymethyl-phenol, reference compound] | 0.0087 | 0.02 | – |
| CC(C)N(CCC(c1ccccc1)c1cc(CO)ccc1O)C(C)C (racemic) [HO-/-OH, (±)-2-(3-Diisopropylamino-1-phenylpropyl)-4-hydroxymethylphenol, reference compound] | – | – | Flux rate [2]: 3 μg/cm^2/24 hrs |
| CCN(CC)CC#CCOC(=O)C(O)(c1ccccc1)C1CCCCC1 (centres unmarked) [oxybutynin] | – | – | tissue selectivity in vivo for the urinary bladder over the effect on the salivation [1]: reversed selectivity |
| CC(C)C(=O)Oc1ccc(CO)cc1C(CCN(C(C)C)C(C)C)c1ccccc1 (racemic) [HO-/-OiBut, (±)-Isobutyric acid 2-(3-diisopropylamino-1-phenylpropyl)-4-hydroxymethylphenyl ester] | – | – | Flux rate [2]: 150 μg/cm^2/24 hrs |
| CC(=O)OCc1ccc(OC(=O)C(C)C)c(C(CCN(C(C)C)C(C)C)c2ccccc2)c1 (racemic) [AcO-/-OiBut, (±)-Isobutyric acid 4-acetoxymethyl-2-(3-diisopropylamino-1-phenylpropyl)-phenyl ester] | 3.6 | – | – |
| [2H]C([2H])(O)c1ccc(O)c(C(CCN(C(C)C)C(C)C)c2ccccc2)c1 (racemic) [deuteriated hydroxy-metabolite, (±)-2-(3-Diisopropylamino-1-phenylpropyl)-4-hydroxy-[^2H2]methyl-phenol] | – | – | decreased velocity of formation of the carboxylic acid [4]: 10% |
| CC(=O)OCc1ccc(OC(=O)C(C)C)c([C@H](CCN(C(C)C)C(C)C)c2ccccc2)c1 [(+)AcO-/-OiBut, R-(+)-isobutyric acid 4-acetoxymethyl-2-(3-diisopropylamino-1-phenylpropyl)-phenyl ester] | – | 0.24 | – |
| CC(=O)OCc1ccc(OC(=O)c2ccccc2)c(C(CCN(C(C)C)C(C)C)c2ccccc2)c1 (racemic) [AcO-/-OBz, (±)-Benzoic acid 2-(3-diisopropylamino-1-phenylpropyl)-4-acetoxymethylphenyl ester] | 5.4 | – | – |
| CC(C)C(=O)OCc1ccc(OC(=O)C(C)C)c(C(CCN(C(C)C)C(C)C)c2ccccc2)c1 (racemic) [iButO-/-OiBut, (±)-Isobutyric acid 2-(3-diisopropylamino-1-phenylpropyl)-4-isobutyryloxymethylphenyl ester] | – | – | Flux rate [2]: 60 μg/cm^2/24 hrs |
